Common to all, as to type: functional
Assay [1] has as its system Diaphorina citri. Nature of the assay: Insecticidal activity against Diaphorina citri assessed as mortality after 48 hr.
Assay [2] deals with Diaphorina citri. As to the kind of experiment: Insecticidal activity against Diaphorina citri infected with Candidatus Liberibacter asiaticus assessed as mortality after 48 hr.
For assay [3], the system named is Diaphorina citri. Nature of the assay: Selectivity ratio of LC50 for Diaphorina citri to LC50 for Diaphorina citri infected with Candidatus Liberibacter asiaticus.

Molecules are shown by their SMILES.

On to `CCOP(=S)(OCC)Oc1nc(Cl)c(Cl)cc1Cl` [CHLORPYRIFOS], for which the LC50 in assay [1] was 0.78 mgAi/L; in assay [2] it was 0.28 mgAi/L. In assay [3], the RatioLC50 is on record as 2.8.
For `O=[N+]([O-])/N=C1\NCCN1Cc1ccc(Cl)nc1` [IMIDACLOPRID], in that order: 0.47 mgAi/L, 0.15 mgAi/L and 3.1.
For `CCO[C@@H]1[C@@H](OC)[C@H](C)O[C@@H](O[C@@H]2C[C@H]3CC[C@@H]4[C@@H](C=C5C(=O)[C@H](C)[C@@H](O[C@H]6CC[C@H](N(C)C)[C@@H](C)O6)CCC[C@H](CC)OC(=O)C[C@H]54)[C@@H]3C2)[C@@H]1OC.CCO[C@@H]1[C@@H](OC)[C@H](C)O[C@@H](O[C@H]2C[C@H]3[C@@H]4C=C5C(=O)[C@H](C)[C@@H](O[C@H]6CC[C@H](N(C)C)[C@@H](C)O6)CCC[C@H](CC)OC(=O)C[C@H]5[C@@H]4C=C(C)[C@@H]3C2)[C@@H]1OC` the same measures were 0.48 mgAi/L, 0.2 mgAi/L and 1.2.
For `CC1(C)C(C(=O)OC(C#N)c2cccc(Oc3ccccc3)c2)C1(C)C` (configuration not stated) [FENPROPATHRIN], in that order: 0.06 mgAi/L, 0.05 mgAi/L and 1.2.

For the origin of these results see ChEMBL document CHEMBL3045799, “Effect of Candidatus Liberibacter asiaticus infection on susceptibility of Asian citrus psyllid, Diaphorina citri, to selected insecticides” (2011).
